The results in this text go back to patent US20260293897A1, “COMPOUND CONTAINING FIVE-MEMBERED HETEROCYCLE, PREPARATION METHOD THEREFOR, AND APPLICATION THEREOF” (QINGDAO KANGQIAO PESTICIDES AND CHEMICALS GROUP CO., LTD., priority 2022, published 2026).

As usually defined, the mortality is the percentage killed.

What all share (format): in vivo
In assay [1] the test system is Resistant Plutella xylostella. Nature of the assay: Resistant Plutella xylostella Controlling Activity Test. The conditions noted are these: Plutella xylostella, in Raphanus sativus, 72 h. The protocol:
Resistant Plutella xylostella Controlling Activity Test:
Leaf dipping method was used, the appropriate amount of radish leaves were dipped into the drug for 10 s, placed in a plastic petri dish padded with filter paper and dried naturally, each dish was connected with 10 heads of 2nd instar small cabbage moths, placed in the observation room at 24° C. and light (16/8 h). 72 h later observation was made, and the body of the insect was touched lightly with a brush and no reaction was regarded as a dead insect, which was repeated for three times, and a blank control was also set up without any additional agent.

Assay [2] concerns Sensitive Plutella xylostella. Nature of the assay: Sensitive Plutella xylostella Controlling Activity Test. The source says: Sensitive Plutella xylostella Controlling Activity Test:
Test targets: Plutella xylostella, 3 rd instar larvae, a sensitive strain raised indoors.
The test method comprises the following steps: selecting fresh cabbage leaves cultivated in a greenhouse, making the cabbage leaves into round with the diameter of 3 cm by using a puncher, putting the circular blade into prepared liquid medicine to be soaked for 10 s according to the sequence from low dose to high dose of experimental design, naturally drying the cabbage leaves in the shade, putting the soaked cabbage leaves into a culture dish with filter paper and the diameter of 9 cm, inoculating regular healthy test insects, n=10, repeating the treatment for 3 times, and additionally setting blank control.

The subject of another assay is Tetranychus cinnabarinus. Nature of the assay: Tetranychus cinnabarinus Controlling Activity Test. The conditions noted are these: 72 h; for mortality at 1.56 ppm / mortality at 3.125 ppm / mortality at 6.25 ppm / mortality at 12.5 ppm: in Phaseolus vulgaris; for mortality at 1.6 ppm: read-out: mortality against Tetranychus cinnabarinus. The protocol: Tetranychus cinnabarinus Controlling Activity Test:
The test compound was dissolved in acetone and diluted to the desired concentration with 0.1 wt % aqueous tween 80, the acetone content not exceeding 5 wt %.
One real leaf was removed from kidney bean seedlings grown to two real leaves, inoculating Tetranychus cinnabarinus, investigating the base number, performing whole plant spraying treatment by using a handheld sprayer, repeating the treatment for 3 times (the application amount of the preparation is about 0.5 g), observing in a constant-temperature observation room after the treatment, investigating the number of live mites after 72 hours, and calculating the mortality. The number of Tetranychus cinnabarinus inoculated in each time is 35-100.
Mortality%=(number of inoculated insects−number of live insects after drug administration)÷number of inoculated insects×100%

In assay [3] the test system is Frankliniella occidentalis larvae. Description: Frankliniella occidentalis Larva Controlling Activity Test. As to conditions: for mortality at 3.25 ppm: read-out: mortality for Frankliniella occidentalis larvae. On the procedure:
Frankliniella occidentalis Larva Controlling Activity Test:
The test compound is dissolved in acetone and diluted to the desired concentration. 0.5 mL of the prepared acetone medicinal liquid is added into a glass tube (the inner diameter is 1 cm, the length is 10 cm), and the glass tube is repeatedly rolled on a flat table until the acetone solution is completely volatilized. Soaking cabbage leaves in the liquid medicine with the corresponding concentration for 15 s, drying, placing in a glass tube, inoculating 10-20 heads of Frankliniella occidentalis larvae in the glass tube, repeating the treatment for three times, observing in a constant-temperature observation room after the treatment, investigating the number of live insects after 72 hours, and calculating the mortality.

The next assay has as its system Phyllotreta striolata. Description: Phyllotreta striolata Controlling Activity Test. The conditions noted are these: 72 h, read-out: mortality against Phyllotreta striolata. On the procedure:
Phyllotreta striolata Controlling Activity Test:
Preparing liquid medicine according to the experimental design concentration, selecting fresh cabbage leaves, soaking the cabbage leaves for 15 s, taking out, airing, placing in a glass tube, connecting 20-25 heads of the Flea beetles adults with each tube, repeating the treatment for 3 times, investigating the death condition of the Phyllotreta striolata after 72 hours, and calculating and correcting the death rate.

A further assay has as its system Spodoptera frugiperda. Description: Spodoptera frugiperda Indoor Toxicity Determination Test. As to conditions: in Zea mays, read-out: mortality against Spodoptera frugiperda. The source says:
Spodoptera frugiperda Indoor Toxicity Determination Test
Test targets: Spodoptera frugiperda, 3rd instar larvae, a sensitive strain raised indoors.
The test method comprises the following steps: firstly, selecting fresh corn leaves cultivated in a greenhouse, cutting the fresh corn leaves into 5 cm-long leaf segments, sequentially arranging the test design from low dose to high dose, soaking the fresh corn leaves in prepared liquid medicine for 10 s, naturally drying the fresh corn leaves in the shade, then placing the dried corn leaves in a culture dish with filter paper and the diameter of 9 cm, inoculating regular healthy test insects, n=10, repeating the treatment for 3 times, and additionally arranging blank control.

Where [4] appears, read: 1 ppm (1 mg/L), 3rd instar larvae, sensitive strain, read-out: mortality against Plutella xylostella.
[5] abbreviates: 3.25 ppm (3.125 mg/L), larvae, 72 hours.
The mark [6] stands for this setting: read-out: mortality against Plutella xylostella.

Where two headings read alike, the source gives them in different places.

Turning to `CO/N=C/NC(=O)c1ccc(C2=NOC(c3cc(Cl)cc(Cl)c3)(C(F)(F)F)C2)cc1C` (centres unmarked) [Fluxametamide, 4-[5-(3,5-dichlorophenyl)-4,5-dihydro-5-(trifluoromethyl)-3-isoxazolyl]-N-[(methoxyamino)methylene]-2-methylbenzamide, reference compound], in assay [1], the mortality at 0.2 ppm is 3.33%, the mortality at 1 ppm was found to be 93.3% and the mortality at 5 ppm was determined as 100%. Besides, in assay [2] (in Brassica oleracea, 72 h), the mortality at 0.333 ppm is 0% and the mortality at 1 ppm worked out at 5%. In the assay with Tetranychus cinnabarinus, the mortality at 1.56 ppm was determined as 0%, the mortality at 3.125 ppm came to 25.6%, the mortality at 6.25 ppm came out at 81.5% and the mortality at 12.5 ppm came out at 96.8%. For the same compound, in assay [3] (in Brassica oleracea, 72 h), the mortality at 1.56 ppm came to 0%, the mortality at 3.125 ppm stood at 0% and the mortality at 6.25 ppm came out at 0%.
`Cc1cc(C2=NO[C@@](c3cc(Cl)c(F)c(Cl)c3)(C(F)(F)F)C2)ccc1C(=O)N[C@H]1CCS(=O)(=O)C1` [Compound I-15]: the mortality at 1 ppm in assay [2] (setting [4]) was greater than 90%. In addition, the mortality at 3.25 ppm in assay [3] (setting [5]) is greater than 90%.
For the compound `CC(=O)N(C(=O)c1ccc(C2=NOC(c3cc(Cl)c(F)c(Cl)c3)(C(F)(F)F)C2)cc1C)C1CCS(=O)(=O)C1` (centres unmarked) [Compound I-9, N-acetyl-4-(5-(3,5-dichloro-4-fluorophenyl)-5-(trifluoromethyl)-4,5-dihydroisoxazol-3-yl)-N-(1,1-dioxotetrahydrothiophen-3-yl)-2-methylbenzamide], in assay [1], the mortality at 0.2 ppm came to 43.3%, the mortality at 1 ppm was 100% and the mortality at 5 ppm stood at 100%. In addition, in assay [2] (setting [6]), the mortality at 1 ppm was greater than 90%. The mortality at 1.6 ppm with Tetranychus cinnabarinus is greater than 90%. For the same compound, the mortality at 3.25 ppm in assay [3] (72 h) was greater than 90%.
With `Cc1cc(C2=NO[C@](c3cc(Cl)c(F)c(Cl)c3)(C(F)(F)F)C2)ccc1C(=O)N[C@H]1CCS(=O)(=O)C1` [Compound I-18], in assay [2] (setting [4]), the mortality at 1 ppm is greater than 90%. Also, the mortality at 3.25 ppm in assay [3] (setting [5]) was greater than 90%.
In the case of `Cc1cc(C2=NOC(c3cc(Cl)c(F)c(Cl)c3)(C(F)(F)F)C2)ccc1C(=O)N(C(=O)C(C)C)C1CCS(=O)(=O)C1` (centres unmarked) [Compound I-21, N-isopropionyl-4-(5-(3,5-dichloro-4-fluorophenyl)-5-(trifluoromethyl)-4,5-dihydroisoxazol-3-yl)-N-(1,1-dioxotetrahydrothiophen-3-yl)-2-methylbenzamide], the mortality at 1 ppm in assay [2] (setting [6]) is greater than 90%. For the same compound, in assay [3] (72 h), the mortality at 3.25 ppm is greater than 90%.
In the case of `Cc1cc(C2=NO[C@@](c3cc(Cl)c(F)c(Cl)c3)(C(F)(F)F)C2)ccc1C(=O)NC1CCS(=O)(=O)C1` (stereo partly drawn) [Compound I-17, 4-((S)-5-(3,5-dichloro-4-fluorophenyl)-5-(trifluoromethyl)-4,5-dihydroisoxazol-3-yl)-N-(1,1-dioxotetrahydrothiophen-3-yl)-2-methylbenzamide], the mortality at 1 ppm in assay [2] (setting [6]) was greater than 90%. In the assay with Phyllotreta striolata, the mortality at 50 ppm is greater than 90%. In addition, in the assay on Tetranychus cinnabarinus, the mortality at 1.6 ppm was greater than 90%, the mortality at 1.56 ppm amounted to 100%, the mortality at 3.125 ppm is 100% and the mortality at 6.25 ppm turned out to be 100%. The compound also came in with a mortality at 12.5 ppm with Tetranychus cinnabarinus of 100%. Moreover, in assay [3] (72 h), the mortality at 3.25 ppm was greater than 90%.
Regarding `Cc1cc(C2=NOC(c3cc(Cl)c(F)c(Cl)c3)(C(F)(F)F)C2)ccc1C(=O)N[C@H]1CCS(=O)(=O)C1` (stereo partly drawn) [Compound I-13, 4-(5-(3,5-dichloro-4-fluorophenyl)-5-(trifluoromethyl)-4,5-dihydroisoxazol-3-yl)-N—((S)-1,1-dioxotetrahydrothiophen-3-yl)-2-methylbenzamide], the mortality at 1 ppm in assay [2] (setting [6]) is greater than 90%. In addition, the mortality at 3.25 ppm in assay [3] (72 h) is greater than 90%.
Turning to `Cc1cc(C2=NOC(c3cc(Cl)c(F)c(Cl)c3)(C(F)(F)F)C2)ccc1C(=O)NC1CCSC1` (centres unmarked) [Compound I-23], the mortality at 1 ppm in assay [2] (setting [4]) was greater than 90%. In addition, in assay [3] (setting [5]), the mortality at 3.25 ppm was greater than 90%.
For `CCC(=O)N(C(=O)c1ccc(C2=NOC(c3cc(Cl)c(F)c(Cl)c3)(C(F)(F)F)C2)cc1C)C1CCS(=O)(=O)C1` (centres unmarked) [Compound I-10, N-propionyl-4-(5-(3,5-dichloro-4-fluorophenyl)-5-(trifluoromethyl)-4,5-dihydroisoxazol-3-yl)-N-(1,1-dioxotetrahydrothiophen-3-yl)-2-methylbenzamide], the mortality at 1 ppm with Spodoptera frugiperda was greater than 90%. Further, in assay [2] (setting [6]), the mortality at 1 ppm was greater than 90%. In the assay on Tetranychus cinnabarinus, the mortality at 1.6 ppm is greater than 90%, the mortality at 1.56 ppm is 97.2%, the mortality at 3.125 ppm came to 100% and the mortality at 6.25 ppm was 100%. This compound also displayed a mortality at 12.5 ppm in the assay with Tetranychus cinnabarinus of 100%. The mortality at 3.25 ppm in assay [3] (72 h) is greater than 90%. In assay [3] (in Brassica oleracea, 72 h), the mortality at 1.56 ppm turned out to be 92%, the mortality at 3.125 ppm worked out at 100% and the mortality at 6.25 ppm is 100%.
For the compound `Cc1cc(C2=NOC(c3cc(Cl)c(F)c(Cl)c3)(C(F)(F)F)C2)ccc1C(=O)NC1CS(=O)(=O)C1` (centres unmarked) [X.82, reference compound], the mortality at 0.333 ppm in assay [2] (72 h, 0.333 ppm, 3rd instar larvae, sensitive strain, cabbage leaves soaked 10 s, three days, read-out: Mortality (%)) is 0%. Besides, the mortality at 1 ppm in assay [2] (72 h, 1 ppm, 3rd instar larvae, sensitive strain, cabbage leaves soaked 10 s, three days, read-out: Mortality (%)) came out at 10%. Also, in assay [3] (1.56 ppm, larvae, cabbage leaves soaked 15 s, 72 hours, read-out: Mortality (%)), the mortality at 1.56 ppm was found to be 0%. Besides, the mortality at 3.125 ppm in assay [3] (3.125 ppm, larvae, cabbage leaves soaked 15 s, 72 hours, read-out: Mortality (%)) amounted to 0%. In addition, the mortality at 6.25 ppm in assay [3] (6.25 ppm, larvae, cabbage leaves soaked 15 s, 72 hours, read-out: Mortality (%)) worked out at 65%.
On to `Cc1cc(C2=NO[C@@](c3cc(Cl)c(F)c(Cl)c3)(C(F)(F)F)C2)ccc1C(=O)N[C@@H]1CCS(=O)(=O)C1` [Compound I-16], for which the mortality at 1 ppm in assay [2] (setting [4]) is greater than 90%. The mortality at 3.25 ppm in assay [3] (setting [5]) is greater than 90%.
Regarding `Cc1cc(C2=NOC(c3cc(Cl)c(F)c(Cl)c3)(C(F)(F)F)C2)ccc1C(=O)N(C(=O)C1CC1)C1CCS(=O)(=O)C1` (centres unmarked) [Compound I-22, N-cyclopropanoyl-4-(5-(3,5-dichloro-4-fluorophenyl)-5-(trifluoromethyl)-4,5-dihydroisoxazol-3-yl)-N-(1,1-dioxotetrahydrothiophen-3-yl)-2-methylbenzamide], the mortality at 1 ppm in assay [2] (setting [6]) is greater than 90%. Further, in assay [3] (72 h), the mortality at 3.25 ppm is greater than 90%.
In assay [1], `CNC(=O)c1cc(Cl)cc(C)c1NC(=O)c1cc(Br)nn1-c1ncccc1Cl` [Chlorantraniliprole, reference compound] displayed a mortality at 0.2 ppm of 33.3%, a mortality at 1 ppm of 40% and a mortality at 5 ppm of 66.7%.
`Cc1cc(C2=NOC(c3cc(Cl)c(Cl)c(Cl)c3)(C(F)(F)F)C2)ccc1C(=O)NC1CCS(=O)(=O)C1` (centres unmarked) [Compound I-3, N-(1,1-dioxotetrahydrothiophen-3-yl)-2-methyl-4-(5-(3,4,5-trichlorophenyl)-5-(trifluoromethyl)-4,5-dihydroisoxazol-3-yl) benzamide]: the mortality at 1 ppm in assay [2] (setting [6]) is greater than 90%. In the assay with Tetranychus cinnabarinus, the mortality at 1.6 ppm is greater than 90%. For the same compound, in assay [3] (72 h), the mortality at 3.25 ppm is greater than 90%.
